Data: US20100093613A1, “METHODS FOR IDENTIFYING AGENTS AND THEIR USE FOR THE PREVENTION OR STABILIZATION OF FIBROSIS” (priority 2007, published 2010)

How the values were obtained:
Fibroblasts [1] = assay: BioMAP HDFT system (TGF-β), scoring of readout parameters; type: cell-based, human; design: key to PAI-1 score: 1 = modulated in desired direction, 0 = not (no penalties applied); details: for PAI-1 score: HDFT, desired change decrease; for inhibit PAI-1 in the HDFT system: indication of TGF-b signaling inhibition without being cytotoxic
Source text: (§1) Each screened compound is scored according to its modulation of the selected readout parameters. Compounds receive a positive score (score of 1) or negative score (score of 0) for each readout parameter set forth in Table 2 that is modulated in the desired direction. […] Parameters may be penalized by making the positive score a −1 for parameters where regulation is opposite to the desired direction.
(§2) Compounds were first selected to inhibit PAI-1 in the HDFT as an indication of TBF-b signaling inhibition without being cytotoxic. […] Blank spots in Table 3 were where parameter was not assayed. Penalties were not applied for this scoring.
(§3) Cell culture. Human umbilical vein endothelial cells (HUVEC) were pooled from multiple donors, cultured according to standard methods, and plated into microtiter plates at passage 4. Cell culture medium for all systems containing HUVEC included hydrocortisone. Coronary artery smooth muscle cells (CASM3C) and umbilical artery smooth muscle cells (HSM3C) were cultured according to standard procedures. Peripheral blood mononuclear cells (PBMC) were prepared from buffy coats from normal human donors according to standard methods. Monocyte-derived macrophages were differentiated in the presence of M-CSF for 7 d according to standard procedures. Human dermal fibroblasts were pooled from 3 donors, cultured according to standard methods, and plated confluent 24 h before stimulation. Cell culture medium for all systems containing fibroblasts and keratinocytes contained low hydrocortisone. Epidermal keratinocytes and bronchial epithelial cells from 3 donors were cultured according to standard procedures and pooled when plated into microtiter plates. For keratinocyte-fibroblast co-cultures, cells were plated simultaneously 24 h before stimulation. For bronchial epithelial cell-fibroblast co-cultures, fibroblasts were plated and cultured 48 before addition of epithelial cells, then cultured another 24 hr before stimulation. Concentrations/amounts of agents added to confluent microtiter plates to build each system: cytokines (IL-1β, 1 ng/ml; TNF-α, 5 ng/ml; IFN-γ, 20 ng/ml; IL-4, 5 ng/ml), activators (SAg, 20 ng/ml; histamine, 10 μM; zymosan, 10 μg/ml; or LPS, 2 ng/ml), growth factors (TGF-β, 5 ng/ml; EGF, bFGF, and PDGF-BB, 10 ng/ml), and PBMC (7.5×10^4 cells/well) or macrophages (3.5×10^4 cells/well).
(§4) Compounds. Compounds were prepared in the solvent directed, added 1 hr before stimulation of the cells, and were present during the 24 hr stimulation period for the measurement of parameters listed in Table 2. For proliferation, compounds added 1 hr before stimulation of the cells with cytokines, and were present during the 48 to 72 hr assay. If prepared in DMSO, the final concentration of solvent was 0.1% or less.
(§5) Readout Parameter Measurements. The levels of readout parameters were measured by ELISA. Briefly, microtiter plates are treated, blocked, and then incubated with primary antibodies or isotype control antibodies (0.01-0.5 microg/ml) for 1 hr. After washing, plates were incubated with a peroxidase-conjugated anti-mouse IgG secondary antibody or a biotin-conjugated anti-mouse IgG antibody for 1 hr followed by streptavidin-HRP for 30 min. Plates were washed and developed with TMB substrate and the absorbance (OD) was read at 450 nm (subtracting the background absorbance at 650 nm). Quantitation of TNF-alpha or PGE2 in the LPS system was done using a commercially available kit according to the manufacturer's directions. Proliferation of endothelial cells (HUVEC and CAEC), smooth muscle cells (SMC and CASMC), and PBMC (T cells) was quantitated by Alamar Blue reduction or SRB.
(§6) Data analysis. Mean OD values for each parameter were calculated for compounds run in duplicate. The mean value (or single well OD value) for each parameter in a treated sample was then divided by the mean value from an appropriate control to generate a ratio.

[2] = test system: Peripheral Blood Mononuclear Cells + Umbilical Vein Endothelial Cells; assay: BioMAP LPS system (TLR4), scoring of readout parameters; type: cell-based, human; details: LPS (by position); desired change decrease
Source text: as §1, §3, §4, §5
as §6, with “ratio. All ratios were then log10 transformed. 95% significance prediction envelopes (grey shading in Figures) were calculated for historical controls.” for “ratio.”

Fibroblasts [3] = assay: BioMAP HDF3CT system (IL-1β + TNF-α + IFN-γ + TGF-β), scoring of readout parameters; type: cell-based, human
Source text: as §1, §3, §4, §5
as §6, with “ratio. All ratios were then log10 transformed. 95% significance prediction envelopes (grey shading in Figures) were calculated for historical controls.” for “ratio.”

[4] = test system: Bronchial epithelial cells; assay: BioMAP BE4T system (IL-4 + TNF-a), scoring of readout parameters; type: cell-based, human; design: key: 1 = modulated in desired direction, 0 = not (−1 = opposite); details: for PAI-1 score: desired change decrease; for EGFR score: desired no change or increase
Experimental: In the “BE4T” system, bronchial epithelial cells, usually primary human bronchial epithelial cells, are cultured in the presence of TNF-α and IL-4.
as §1, §3, §4, §5
as §6, with “ratio. All ratios were then log10 transformed. 95% significance prediction envelopes (grey shading in Figures) were calculated for historical controls.” for “ratio.”

[5] = test system: Umbilical Vein Endothelial Cells; assay: BioMAP 3C system (IL-1β + TNF-α + IFN-γ), scoring of readout parameters; type: cell-based, human; details: for HLA-DR score: desired change decrease; for uPAR score: desired change increase
Source text: as §1, §3, §4, §5
as §6, with “ratio. All ratios were then log10 transformed. 95% significance prediction envelopes (grey shading in Figures) were calculated for historical controls.” for “ratio.”

[6] = test system: Bronchial epithelial cells; assay: BioMAP BE3C system (IL-1β + TNF-α + IFN-γ), scoring of readout parameters; type: cell-based, human; details: for PAI-1 score: desired change decrease; for EGFR score: desired no change or increase
Source text: as §1, §3, §4, §5
as §6, with “ratio. All ratios were then log10 transformed. 95% significance prediction envelopes (grey shading in Figures) were calculated for historical controls.” for “ratio.”

human primary cells = assay: Total score for desired parameter modulation over the BioMAP systems of Table 1; type: cell-based; details: penalties not applied
Source text: as §1
The relative importance of each parameter may be weighted by the screener to select those parameters of greatest interest for a particular application.
as §2
BioMAP Systems are designed to model complex human disease biology in a practical in vitro format. This is achieved by stimulating human primary cells (single cell type or defined mixtures of cell types) such that multiple disease-relevant signaling pathways are simultaneously active. The choice of cell types and stimulations is guided by the knowledge of disease biology and mechanisms. Incorporating appropriate cell types and stimulating signaling pathways relevant to disease states allows association of biological activities detected in BioMAP Systems with disease processes. Drug effects are then recorded by measuring biologically meaningful protein readouts that provide coverage of biological space of interest (e.g., inflammation, tissue remodeling) and allow discrimination between different drug classes tested.
as §3, §4
Readout Parameter Measurements. The levels of readout parameters were measured by ELISA.

Structure (SMILES)	PAI-1 score (Fibroblasts [1])	inhibit PAI-1 in the HDFT system (Fibroblasts [1])	TF score [2]	MMP-1 score (Fibroblasts [3])	uPA score [4]	PAI-1 score [4]	EGFR score [4]	HLA-DR score [5]	uPAR score [5]	HLA-DR score [6]	MMP-1 score [6]	uPA score [6]	PAI-1 score [6]	EGFR score [6]	Score (Fraction correctly modulated parameters out of 45-58 total) (human primary cells)
Cn1cnc([N+](=O)[O-])c1Sc1ncnc2nc[nH]c12 [Azathioprine]	0	none of these inhibit PAI-1	0	0	0	0	0	0	0	0	0	0	0	0	0.12
CCc1oc2ccccc2c1C(=O)c1cc(Br)c(O)c(Br)c1 [Benzbromarone]	1		0	0	1	0	0	0	0	0	1	0	1	0	0.36
C=C1CC[C@H](O)C/C1=C/C=C1\CCC[C@]2(C)[C@@H]([C@H](C)/C=C/[C@H](C)C(C)C)CC[C@@H]12 [Calciferol]	1		0	0	1	0	0	0	1	0	1	0	0	0	0.29
COc1cc2c(c(OC)c1OC)-c1ccc(OC)c(=O)cc1[C@@H](NC(C)=O)CC2 [Colchicine]	0	none of these inhibit PAI-1	0	0	1	0	0	0	0	0	0	0	0	0	0.17
O=C(O)c1ccccc1Nc1cccc(C(F)(F)F)c1 [Flufenamic Acid]	1		0	1	0	1	0	0	0	0	0	0	1	0	0.28
Fc1ccc(C(OCCN2CCN(CCCc3ccccc3)CC2)c2ccc(F)cc2)cc1 [GBR 12909]	1		0	0	0	0	0	0	0	0	1	0	0	0	0.29
CCCCN(CCCC)CCC(O)c1cc2c(Cl)cc(Cl)cc2c2cc(C(F)(F)F)ccc12 (stereo not drawn) [Halofantrine]	1		0	0	0	0	0	0	0	0	1	0	0	0	0.27
CCN(CC)CCNc1ccc(CO)c2sc3ccccc3c(=O)c12 [Hycanthone]	1		1	0	0	1	0	0	0	0	0	0	1	0	0.28
O=c1cc(-c2ccc(O)c(O)c2)oc2cc(O)cc(O)c12 [Luteolin]	1		1	0	0	0	0	0	0	0	0	0	0	0	0.36
COC(=O)Nc1nc2ccc(SC(C)C)cc2[nH]1 [Methiazole]	1		1	0	0	1	0	0	0	0	0	0	1	0	0.55
C[C@]12C=CC(=O)C=C1CC[C@@H]1[C@@H]2[C@@H](O)C[C@@]2(C)[C@H]1CC[C@]2(O)C(=O)CO [Prednisolone]	0	none of these inhibit PAI-1	0	0	0	0	0	1	0	0	0	0	0	0	0.17
Cc1c(Cl)cccc1Nc1ccccc1C(=O)O [Tolfenamic Acid]	1		0	1	0	0	0	0	0	0	1	0	1	0	0.33
